Values quoted from earlier work as cited in patent US6147189A, “Polypeptides that include conformation-constraining groups which flank a protein-protein interaction site” (Virginia Commonwealth University, priority 1997, dated 2000).
Where a SMILES comes first, the peptide text is derived from it.

System: receptors of sweet tasting papillae
Details: comparison value

COC(=O)[C@H](Cc1ccccc1)NC(=O)[C@@H](N)CC(=O)O [aspartame] (H-Asp-Phe-OMe)
Sweetness compared with sugar: 160 times sweeter than sugar
